These results are taken from US11339165B2, “Pyrazolopyrimidines having activity against the respiratory syncytial virus (RSV)” (priority 2017, dated 2022).

One series relates to rgRSV224 virus. The series is described as follows: Antiviral activity: rgRSV224 (GFP) replication in HeLa cells. Format: cell-based, respiratory syncytial virus (RSV).
The subject of series [1] is HeLa cells.
Series [2] in a line: Pharmacokinetics after single intravenous administration in the fasted male Beagle dog. The format is in vivo. The note with it: intravenous administration at 1 mg/kg in dogs, first 8 hours after administration. As for the experimental part:
E.2 Pharmacokinetics after Single Intravenous Administration in the Fasted Male Beagle Dog
The test compound was dissolved in a 20% (w/v) hydroxypropyl-β-cyclodextrin (HP-beta-CD) solution at a final concentration of 2 mg/mL for the intravenous formulation. NaOH was added to the formulations to facilitate dissolution and after total dissolution the pH was adjusted with HCl to 8.4. The intravenous (IV) formulation was made isotonic with mannitol. Prior to dosing, all formulations were stored at room temperature and protected from light. The IV formulation was dosed in a cephalic vein at 0.5 mL/kg to obtain a final dose of 1 mg/kg.
Three male Beagle dogs, with a mean weight of 10.9±1.1 kg, were used. A complete concentration time profile was obtained from each individual animal. Prior to dosing, animals were fasted overnight. Their standard dry diet was returned to them at 2 hours post dose. Tap water was available ad libitum.
From each individual animal, blood samples were taken at 7 and 20 minutes, 1, 2, 4, 7, 24 and 48 hours after intravenous dose administration. […] Plasma samples were analysed using a qualified research LC-MS/MS method. The key analytical performance (linearity, upper and lower limit of quantification, accuracy and precision) of the method was reported together with the plasma concentrations. The lower limit of quantification (LLOQ) was 10.0 ng/mL. […]

The next series is described as follows: in vitro. The note with it: human, TOX HELA CC50 (μM).
Series [3] can be described thus: Cytotoxicity in HeLa cells (ATP content, ATPlite kit). The note with it: human.
Series [4] has as its system HeLa cells. Described as above. The conditions noted are these: read-out: TOX HELA CC50; HeLa cells, three days incubation, ATP content.
[5] abbreviates: rgRSV224 virus (MOI=1), HeLa cells, GFP expression three days post-virus exposure, read-out: RSV HELA EC50.
Setting [6] is: human respiratory syncytial virus, HeLa, 72 h, read-out: RSV HELA EC50 (μM), rgRSV224 virus (MOI=1), HeLa cells, GFP expression three days post-virus exposure.

Broadly, the EC50 is the concentration giving half of the maximal effect. Broadly, the CC50 is the concentration at which the toxic effect on the cells reaches its halfway point. By melting point is commonly meant the temperature, or range, at which the solid turns liquid.

Like-named read-outs stand apart in the source and are kept apart here.

Take `C[C@@H]1c2ccccc2CCN1C(=O)c1cc(C2CC2)n2nc(-c3ccc(N4C[C@@H](C(N)=O)C[C@@H]4C)cc3F)cc2n1` (relative stereo) [Compound 35, (3*S,5*S)-1-(4-{7-cyclopropyl-5-[(1R)-1-methyl-1,2,3,4-tetrahydroisoquinoline-2-carbonyl]pyrazolo[1,5-a]pyrimidin-2-yl}-3-fluorophenyl)-5-methylpyrrolidine-3-carboxamide]: in the series on rgRSV224 virus (setting [5]), the EC50 was found to be 0.033 µM. For the same compound, the half-maximal cytotoxic concentration (CC50) in the series with HeLa cells [1] was 25.5 µM.
On to `CNC(=O)[C@H]1CCN(c2ccc(-c3cc4nc(C(=O)N5CCc6ccccc6[C@H]5C)cc(C5CC5)n4n3)c(F)c2)C1` [Compound 37, (3S)-1-(4-{7-Cyclopropyl-5-[(1R)-1-methyl-1,2,3,4-tetrahydroisoquinoline-2-carbonyl]pyrazolo[1,5-a]pyrimidin-2-yl}-3-fluorophenyl)-N-methylpyrrolidine-3-carboxamide], for which the melting point is 123.18 °C. The plasma concentration profile result in series [2] is on record as “does not show this rapid decline”. Also, the CC50 at 3 days in the series “in vitro” was found to be 62 µM. Besides, the EC50 with rgRSV224 virus (setting [6]) is 0.019 µM.
Take `C[C@@H]1c2ccccc2CCN1C(=O)c1cc(C2CC2)n2nc(-c3ccc(N4CCC(O)(CO)C4)cc3F)cc2n1` (single isomer, unassigned) [Compound 104]: the EC50 in the series on rgRSV224 virus (read-out: RSV HELA EC50, rgRSV224 virus (MOI=1), HeLa cells, GFP expression three days post-virus exposure) turned out to be 0.025 µM. Also, half-maximal cytotoxicity in the series with HeLa cells [1] (human, 3 days) (CC50) was put at 28.2 µM.
For `C[C@@H]1c2ccccc2CCN1C(=O)c1cc(C2CC2)n2nc(-c3ccc(N4CC[C@H](NP(C)(C)=O)C4)cc3F)cc2n1` [Compound 31, (1R)-2-(7-Cyclopropyl-2-{4-[(3S)-3-[(dimethylphosphoryl)amino]pyrrolidin-1-yl]-2-fluorophenyl}pyrazolo[1,5-a]pyrimidine-5-carbonyl)-1-methyl-1,2,3,4-tetrahydro-isoquinoline], the 50% effective concentration (EC50) in the series on rgRSV224 virus (setting [6]) was 0.036 µM. Also, half-maximal cytotoxicity in series [3] (CC50 at 3 days) was put at 39.1 µM.
`C[C@@H]1c2ccccc2CCN1C(=O)c1cc(C2CC2)n2nc(-c3ccc(N4C[C@@H](C(N)=O)C[C@H]4C)cc3F)cc2n1` (relative stereo) [Compound 34, (3*S,5*R)-1-(4-{7-cyclopropyl-5-[(1R)-1-methyl-1,2,3,4-tetrahydroisoquinoline-2-carbonyl]pyrazolo[1,5-a]pyrimidin-2-yl}-3-fluorophenyl)-5-methylpyrrolidine-3-carboxamide]: the EC50 with rgRSV224 virus (setting [5]) is 0.037 µM. For the same compound, in the series on HeLa cells [4], the CC50 worked out at 23.1 µM.
Consider `C[C@@H]1c2ccccc2CCN1C(=O)c1cc(C2CC2)n2nc(-c3ccc(N4CC[C@@H](NP(C)(C)=O)C4)cc3F)cc2n1` [Compound 30, (1R)-2-(7-Cyclopropyl-2-{4-[(3R)-3-[(dimethylphosphoryl)amino]pyrrolidin-1-yl]-2-fluorophenyl}pyrazolo[1,5-a]pyrimidine-5-carbonyl)-1-methyl-1,2,3,4-tetrahydro-isoquinoline], for which the 50% effective concentration (EC50) with rgRSV224 virus (setting [6]) turned out to be 0.036 µM. In series [3], this compound gave a half-maximal cytotoxic concentration (CC50) at 3 days of 33.9 µM.
